pEC50, pIC50: −log10 of the molar value. The source made the active and inactive calls. The calls are words filed in the database; no cut-off is given here.
Tests used:
[1] = system: A-375; experiment: Cytotoxicity against human A375 cells after 72 hrs by MTS assay; conditions: A-375, 72 h
[2] = Half life in human liver microsomes; assay type: ADME, Microsome
[3] = Half life in rat liver microsomes; assay type: ADME, Microsome
[4] = system: COLO 205; experiment: Cytotoxicity against human COLO205 cells after 72 hrs by MTS assay; conditions: COLO 205, 72 h
[5] = target: Dual specificity mitogen-activated protein kinase kinase 1 (Homo sapiens, UniProt Q02750)
Description: Inhibition of MEK1 by IMAP assay

[6] = target: Proto-oncogene tyrosine-protein kinase Src (Homo sapiens) (UniProt P12931); experiment: Inhibition of c-SRC up to 10 uM
[7] = Oral bioavailability in dog at 2.3 mg/kg; assay type: ADME, organism-based, Canis lupus familiaris; conditions: in vivo
[8] = Mean residence time in mouse at 1.4 mg/kg, iv; assay type: ADME, organism-based; set-up: dose 1.4 mg/kg, route intravenous; conditions: in vivo
[9] = Clearance in rat at 1 mg/kg, iv and 4.2 mg/kg, po; assay type: ADME, organism-based; conditions: in vivo
[10] = Plasma protein binding in human; assay type: ADME, cell-free; conditions: read-out: PPB (converted)
[11] = Oral bioavailability in mouse at […]; assay type: ADME, organism-based; conditions: in vivo
[12] = Plasma protein binding in mouse; assay type: ADME, cell-free; conditions: read-out: PPB (converted)
[13] = target: Tyrosine-protein kinase ABL1 (Homo sapiens) (UniProt P00519); experiment: Inhibition of Abl1 up to 10 uM
[14] = Mean residence time in dog at 0.6 mg/kg, iv; assay type: ADME, organism-based, Canis lupus familiaris; set-up: dose 0.6 mg/kg, route intravenous; conditions: in vivo
[15] = target: Epidermal growth factor receptor (Homo sapiens) (UniProt P00533); experiment: Inhibition of EGFR up to 10 uM
[16] = Volume of distribution at steady state in mouse at 1.4 mg/kg, iv and […], po; assay type: ADME, organism-based; conditions: in vivo, read-out: Vdss
[17] = Mean residence time in dog at 2.3 mg/kg, po; assay type: ADME, organism-based, Canis lupus familiaris; set-up: dose 2.3 mg/kg, route oral; conditions: in vivo
[18] = Oral bioavailability in rat at 4.2 mg/kg; assay type: ADME, organism-based; conditions: in vivo
[19] = target: Calcium/calmodulin-dependent protein kinase type 1D (Homo sapiens) (UniProt Q8IU85); experiment: Inhibition of CamK1delta up to 10 uM
[20] = Mean residence time in rat at 1 mg/kg, iv; assay type: ADME, organism-based; set-up: dose 1 mg/kg, route intravenous; conditions: in vivo
[21] = target: Mitogen-activated protein kinase 14 (Homo sapiens) (UniProt Q16539); experiment: Inhibition of p38alpha up to 10 uM
[22] = target: RAF proto-oncogene serine/threonine-protein kinase (Homo sapiens) (UniProt P04049); experiment: Inhibition of c-RAF up to 10 uM
[23] = Clearance in dog at 0.6 mg/kg, iv and 2.3 mg/kg, po; assay type: ADME, organism-based, Canis lupus familiaris; conditions: in vivo
[24] = target: Serine/threonine-protein kinase PLK3 (Homo sapiens) (UniProt Q9H4B4); experiment: Inhibition of PLK3 up to 10 uM
[25] = Clearance in monkey at 0.5 mg/kg, iv and 2 mg/kg, po; assay type: ADME, organism-based, Macaca mulatta; conditions: rhesus monkey, in vivo
[26] = Mean residence time in monkey at 2 mg/kg, po; assay type: ADME, organism-based, Macaca mulatta; set-up: dose 2 mg/kg, route oral; conditions: rhesus monkey, in vivo
[27] = target: Cyclin-dependent kinase 2/cyclin A (Homo sapiens) (UniProt P24941+P20248+P78396); experiment: Inhibition of CDK2/cyclin A up to 10 uM; assay type: protein-complex assay
[28] = target: Protein kinase C alpha type (Homo sapiens) (UniProt P17252); experiment: Inhibition of PKCalpha up to 10 uM
[29] = target: RAC-gamma serine/threonine-protein kinase (Homo sapiens) (UniProt Q9Y243); experiment: Inhibition of AKT3 up to 10 uM
[30] = Volume of distribution at steady state in rat at 1 mg/kg, iv and 4.2 mg/kg, po; assay type: ADME, organism-based; conditions: in vivo, read-out: Vdss
[31] = target: Glycogen synthase kinase-3 beta (Homo sapiens) (UniProt P49841); experiment: Inhibition of GSK3-beta up to 10 uM
[32] = target: Tyrosine-protein kinase JAK3 (Homo sapiens) (UniProt P52333); experiment: Inhibition of JAK3 up to 10 uM
[33] = Inhibition of CYP450 up to 30 uM; assay type: ADME
[34] = target: Platelet-derived growth factor receptor beta (Homo sapiens) (UniProt P09619); experiment: Inhibition of PDGFRbeta up to 10 uM
[35] = Oral bioavailability in monkey at 2 mg/kg; assay type: ADME, organism-based, Macaca mulatta; conditions: rhesus monkey, in vivo
[36] = Volume of distribution at steady state in monkey at 0.5 mg/kg, iv and 2 mg/kg, po; assay type: ADME, organism-based, Macaca mulatta; conditions: rhesus monkey, in vivo, read-out: Vdss
[37] = target: Insulin receptor (Homo sapiens) (UniProt P06213); experiment: Inhibition of IR up to 10 uM
[38] = Mean residence time in mouse at […], po; assay type: ADME, organism-based; set-up: dose 7.8 mg/kg, route oral; conditions: in vivo
[39] = Mean residence time in monkey at 0.5 mg/kg, iv; assay type: ADME, organism-based, Macaca mulatta; set-up: dose 0.5 mg/kg, route intravenous; conditions: rhesus monkey, in vivo
[40] = Volume of distribution at steady state in dog at 0.6 mg/kg, iv and 2.3 mg/kg, po; assay type: ADME, organism-based, Canis lupus familiaris; conditions: in vivo, read-out: Vdss
[41] = Mean residence time in rat at 4.2 mg/kg, po; assay type: ADME, organism-based; set-up: dose 4.2 mg/kg, route oral; conditions: in vivo
[42] = target: Angiopoietin-1 receptor (Homo sapiens) (UniProt Q02763); experiment: Inhibition of Tie2 up to 10 uM
[43] = target: [Pyruvate dehydrogenase (acetyl-transferring)] kinase isozyme 1, mitochondrial (Homo sapiens) (UniProt Q15118); experiment: Inhibition of PDK1 up to 10 uM
[44] = target: Tyrosine-protein kinase SYK (Homo sapiens) (UniProt P43405); experiment: Inhibition of Syk up to 10 uM
[45] = Clearance in mouse at 1.4 mg/kg, iv and […] mg/kg, po; assay type: ADME, organism-based; conditions: in vivo
[46] = target: Hepatocyte growth factor receptor (Homo sapiens) (UniProt P08581); experiment: Inhibition of c-Met up to 10 uM

Dual specificity mitogen-activated protein kinase kinase 1, sequence (Q02750 whole entry): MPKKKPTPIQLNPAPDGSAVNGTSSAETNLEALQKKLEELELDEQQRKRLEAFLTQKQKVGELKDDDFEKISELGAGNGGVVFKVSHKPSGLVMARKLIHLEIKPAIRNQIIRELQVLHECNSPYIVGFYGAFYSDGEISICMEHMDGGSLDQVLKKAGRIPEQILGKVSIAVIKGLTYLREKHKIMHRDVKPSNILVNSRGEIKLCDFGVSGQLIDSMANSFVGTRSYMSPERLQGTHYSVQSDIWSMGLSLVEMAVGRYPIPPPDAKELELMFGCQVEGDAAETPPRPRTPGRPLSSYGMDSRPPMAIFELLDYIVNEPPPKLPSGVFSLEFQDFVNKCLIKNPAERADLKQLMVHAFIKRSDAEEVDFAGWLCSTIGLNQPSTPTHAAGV
RAF proto-oncogene serine/threonine-protein kinase (Homo sapiens), sequence (P04049 whole entry): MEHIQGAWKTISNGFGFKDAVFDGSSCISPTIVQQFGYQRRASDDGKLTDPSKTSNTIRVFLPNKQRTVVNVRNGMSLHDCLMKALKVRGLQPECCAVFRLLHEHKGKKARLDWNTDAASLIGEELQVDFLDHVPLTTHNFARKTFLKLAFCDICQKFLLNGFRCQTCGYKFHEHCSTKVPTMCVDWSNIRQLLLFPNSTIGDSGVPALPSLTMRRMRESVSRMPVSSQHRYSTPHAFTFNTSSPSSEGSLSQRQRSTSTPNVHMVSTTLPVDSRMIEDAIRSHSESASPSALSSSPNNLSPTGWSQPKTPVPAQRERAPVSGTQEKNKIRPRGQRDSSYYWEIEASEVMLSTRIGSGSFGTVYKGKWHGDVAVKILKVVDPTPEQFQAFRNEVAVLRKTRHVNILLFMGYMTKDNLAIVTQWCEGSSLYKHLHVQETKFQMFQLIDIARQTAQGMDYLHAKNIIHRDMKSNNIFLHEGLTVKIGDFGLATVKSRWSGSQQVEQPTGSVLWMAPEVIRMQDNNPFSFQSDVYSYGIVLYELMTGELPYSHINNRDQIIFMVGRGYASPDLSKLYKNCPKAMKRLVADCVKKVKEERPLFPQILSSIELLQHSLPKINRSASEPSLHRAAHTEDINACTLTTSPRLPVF
Glycogen synthase kinase-3 beta (Homo sapiens), sequence (P49841 whole entry, looked up): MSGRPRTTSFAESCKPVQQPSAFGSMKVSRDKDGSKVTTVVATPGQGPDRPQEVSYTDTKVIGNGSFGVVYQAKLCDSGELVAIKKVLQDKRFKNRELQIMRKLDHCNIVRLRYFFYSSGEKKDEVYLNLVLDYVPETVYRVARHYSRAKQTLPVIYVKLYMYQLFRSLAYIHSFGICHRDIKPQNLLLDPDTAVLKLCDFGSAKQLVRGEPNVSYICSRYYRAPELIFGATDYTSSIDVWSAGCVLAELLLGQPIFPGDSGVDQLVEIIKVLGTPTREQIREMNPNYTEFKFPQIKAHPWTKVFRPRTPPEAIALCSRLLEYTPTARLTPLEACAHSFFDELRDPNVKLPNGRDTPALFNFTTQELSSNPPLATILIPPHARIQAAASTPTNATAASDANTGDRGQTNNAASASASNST
RAC-gamma serine/threonine-protein kinase (Homo sapiens), sequence (Q9Y243 whole entry): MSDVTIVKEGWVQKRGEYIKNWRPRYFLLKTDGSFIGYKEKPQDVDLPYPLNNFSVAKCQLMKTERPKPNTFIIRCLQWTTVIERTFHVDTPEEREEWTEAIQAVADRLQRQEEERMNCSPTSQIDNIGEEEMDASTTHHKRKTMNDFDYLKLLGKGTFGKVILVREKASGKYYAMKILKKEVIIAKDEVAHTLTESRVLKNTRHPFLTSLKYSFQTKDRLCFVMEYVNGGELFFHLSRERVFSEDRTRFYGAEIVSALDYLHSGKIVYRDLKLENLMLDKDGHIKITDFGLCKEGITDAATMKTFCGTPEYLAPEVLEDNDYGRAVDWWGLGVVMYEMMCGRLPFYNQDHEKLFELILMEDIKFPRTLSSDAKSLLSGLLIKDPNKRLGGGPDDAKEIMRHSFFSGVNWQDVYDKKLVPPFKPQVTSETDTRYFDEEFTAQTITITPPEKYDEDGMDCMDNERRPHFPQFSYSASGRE
Tyrosine-protein kinase JAK3 (Homo sapiens), sequence (P52333 whole entry): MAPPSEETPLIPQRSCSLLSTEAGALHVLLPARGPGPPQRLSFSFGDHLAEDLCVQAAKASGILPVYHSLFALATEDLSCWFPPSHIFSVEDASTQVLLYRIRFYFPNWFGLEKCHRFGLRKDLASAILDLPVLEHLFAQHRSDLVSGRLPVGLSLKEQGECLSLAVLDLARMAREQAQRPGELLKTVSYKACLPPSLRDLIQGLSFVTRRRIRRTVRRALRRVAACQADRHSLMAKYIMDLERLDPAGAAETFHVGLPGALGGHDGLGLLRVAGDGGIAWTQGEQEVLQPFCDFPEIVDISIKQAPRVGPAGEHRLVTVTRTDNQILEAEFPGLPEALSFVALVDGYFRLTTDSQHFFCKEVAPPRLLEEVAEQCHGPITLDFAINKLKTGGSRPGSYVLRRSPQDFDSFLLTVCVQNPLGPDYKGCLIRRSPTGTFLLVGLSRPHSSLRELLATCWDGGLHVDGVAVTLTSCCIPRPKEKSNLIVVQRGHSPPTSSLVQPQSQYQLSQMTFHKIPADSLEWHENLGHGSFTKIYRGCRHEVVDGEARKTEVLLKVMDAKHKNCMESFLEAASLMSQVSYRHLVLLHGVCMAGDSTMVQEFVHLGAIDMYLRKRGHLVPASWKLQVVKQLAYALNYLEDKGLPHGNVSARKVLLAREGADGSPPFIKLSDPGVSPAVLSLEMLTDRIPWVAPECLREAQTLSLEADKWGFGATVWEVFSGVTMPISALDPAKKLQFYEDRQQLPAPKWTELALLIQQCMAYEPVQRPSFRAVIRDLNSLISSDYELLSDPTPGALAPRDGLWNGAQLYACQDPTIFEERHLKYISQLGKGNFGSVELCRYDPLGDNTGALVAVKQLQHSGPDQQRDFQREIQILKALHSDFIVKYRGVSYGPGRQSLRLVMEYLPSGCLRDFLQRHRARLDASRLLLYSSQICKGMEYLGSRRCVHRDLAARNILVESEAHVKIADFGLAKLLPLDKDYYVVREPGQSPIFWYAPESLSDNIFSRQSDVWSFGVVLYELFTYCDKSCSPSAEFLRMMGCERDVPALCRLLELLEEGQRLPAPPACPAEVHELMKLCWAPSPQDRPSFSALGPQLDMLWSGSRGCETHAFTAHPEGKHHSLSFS
Serine/threonine-protein kinase PLK3 (Homo sapiens), sequence (Q9H4B4 whole entry, looked up): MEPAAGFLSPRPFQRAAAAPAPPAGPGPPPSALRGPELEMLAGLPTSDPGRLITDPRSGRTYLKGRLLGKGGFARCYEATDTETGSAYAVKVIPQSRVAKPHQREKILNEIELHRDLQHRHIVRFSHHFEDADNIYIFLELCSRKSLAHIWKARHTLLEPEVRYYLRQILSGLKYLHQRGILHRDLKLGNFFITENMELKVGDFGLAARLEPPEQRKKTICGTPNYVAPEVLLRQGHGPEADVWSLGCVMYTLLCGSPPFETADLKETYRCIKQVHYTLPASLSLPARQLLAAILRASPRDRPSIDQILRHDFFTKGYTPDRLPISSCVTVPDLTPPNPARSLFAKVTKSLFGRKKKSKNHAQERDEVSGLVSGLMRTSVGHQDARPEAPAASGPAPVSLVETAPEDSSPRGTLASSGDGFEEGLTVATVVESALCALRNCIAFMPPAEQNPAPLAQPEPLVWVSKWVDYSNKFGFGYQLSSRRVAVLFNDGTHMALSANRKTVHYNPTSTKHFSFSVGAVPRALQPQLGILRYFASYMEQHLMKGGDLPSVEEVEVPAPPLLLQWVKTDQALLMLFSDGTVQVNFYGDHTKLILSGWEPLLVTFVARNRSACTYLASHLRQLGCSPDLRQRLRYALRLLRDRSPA
Calcium/calmodulin-dependent protein kinase type 1D (Homo sapiens), sequence (Q8IU85 whole entry, looked up): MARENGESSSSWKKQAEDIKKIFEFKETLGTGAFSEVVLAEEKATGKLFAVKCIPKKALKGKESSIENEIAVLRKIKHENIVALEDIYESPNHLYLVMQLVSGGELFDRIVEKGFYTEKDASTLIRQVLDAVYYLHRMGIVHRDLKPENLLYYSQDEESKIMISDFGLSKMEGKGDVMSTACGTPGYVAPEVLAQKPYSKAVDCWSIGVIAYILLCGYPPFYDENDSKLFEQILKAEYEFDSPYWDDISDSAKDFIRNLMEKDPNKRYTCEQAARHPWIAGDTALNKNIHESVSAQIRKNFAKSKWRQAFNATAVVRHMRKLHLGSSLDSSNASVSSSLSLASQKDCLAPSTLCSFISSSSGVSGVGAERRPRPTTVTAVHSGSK

## Cn1c(=O)cc(Nc2ccc(I)cc2F)c2c(=O)n(C[C@H](O)CO)cnc21
[1]
  pEC50: 7.40
[2]
  half-life: > 3.33 h
[3]
  half-life: > 3.33 h
[4]
  pEC50: 7.42

## Cn1c(=O)c(Cl)c(Nc2ccc(I)cc2F)c2c(=O)n(C[C@@H](O)CO)cnc21
[1]
  pEC50: 7.60
[5]
  pIC50: 8.23
[2]
  half-life: 0.367 h
[3]
  half-life: > 3.33 h
[4]
  pEC50: 8.00

## Cn1cnc2c(c(Nc3ccc(I)cc3F)cc(=O)n2C)c1=O
[1]
  pEC50: 7.07
[2]
  half-life: > 3.33 h
[3]
  half-life: 0.217 h
[4]
  pEC50: 7.31

## Cn1c(=O)cc(Nc2ccc(I)cc2F)c2c(=O)n(C[C@@H](O)CO)cnc21
[1]
  pEC50: 7.59
[2]
  half-life: 0.8 h
[3]
  half-life: 0.417 h
[4]
  pEC50: 7.57

## Cc1c(Nc2ccc(I)cc2F)c2c(=O)n(CCO)cnc2n(C)c1=O
[1]
  pEC50: 7.74
[5]
  pIC50: 8.40
[2]
  half-life: > 3.33 h
[3]
  half-life: > 3.33 h
[4]
  pEC50: 8.05

## Cn1c(=O)c(F)c(Nc2ccc(Br)cc2F)c2c(=O)n(C[C@@H](O)CO)cnc21
[1]
  pEC50: 7.30
[2]
  half-life: 3.13 h
[3]
  half-life: 0.817 h
[4]
  pEC50: 7.42

## Cn1c(=O)cc(Nc2ccc(I)cc2F)c2c(=O)n(CCCO)cnc21
[1]
  pEC50: 7.64
[5]
  pIC50: 8.31
[2]
  half-life: > 3.33 h
[3]
  half-life: 0.333 h
[4]
  pEC50: 7.80

## Cc1c(Nc2ccc(I)cc2F)c2c(=O)n(C[C@H](O)CO)cnc2n(C)c1=O
[1]
  pEC50: 8.10
[2]
  half-life: > 3.33 h
[3]
  half-life: > 3.33 h
[4]
  pEC50: 7.89

## Cn1c(=O)c(F)c(Nc2ccc(I)cc2F)c2c(=O)n(C[C@@H](O)CO)cnc21 [TAK-733]
[6]
  inhibition: inactive
[7]
  bioavailability: 76%
[8]
  MRT: 1.9 h
[9]
  clearance: 13.7 mL/min/kg
[10]
  fraction unbound: 0.03
[11]
  bioavailability: 67%
[12]
  fraction unbound: 0.04
[1]
  pEC50: 8.51
[13]
  inhibition: inactive
[14]
  MRT: 8.9 h
[15]
  inhibition: inactive
[16]
  Vd: 1.96 L/kg
[17]
  MRT: 12.9 h
[18]
  bioavailability: 71%
[19]
  inhibition: inactive
[20]
  MRT: 2 h
[21]
  inhibition: inactive
[22]
  inhibition: inactive
[23]
  clearance: 5.9 mL/min/kg
[24]
  inhibition: inactive
[25]
  clearance: 11.1 mL/min/kg
[26]
  MRT: 23.8 h
[27]
  inhibition: inactive
[28]
  inhibition: inactive
[5]
  pIC50: 8.49
[29]
  inhibition: inactive
[30]
  Vd: 1.64 L/kg
[2]
  half-life: 2.38 h
[31]
  inhibition: inactive
[32]
  inhibition: inactive
[33]
  inhibition (INH): Not Active
[34]
  inhibition: inactive
[35]
  bioavailability: > 38%
[36]
  Vd: 3.75 L/kg
[37]
  inhibition: inactive
[38]
  MRT: 4.6 h
[39]
  MRT: 5.8 h
[3]
  half-life: 2.25 h
[40]
  Vd: 3.07 L/kg
[4]
  pEC50: 8.68
[41]
  MRT: 11.5 h
[42]
  inhibition: inactive
[43]
  inhibition: inactive
[44]
  inhibition: inactive
[45]
  clearance: 17.2 mL/min/kg
[46]
  inhibition: inactive

## CN(C)CCn1cnc2c(c(Nc3ccc(I)cc3F)cc(=O)n2C)c1=O
[5]
  pIC50: 6.13
[2]
  half-life: 0.483 h
[3]
  half-life: 0.133 h

## Cn1c(=O)c(F)c(Nc2ccc(I)cc2F)c2c(=O)n(CCO)cnc21
[1]
  pEC50: 8.20
[2]
  half-life: 0.85 h
[3]
  half-life: 0.483 h
[4]
  pEC50: 8.43

## Cc1c(Nc2ccc(I)cc2F)c2c(=O)n(C[C@@H](O)CO)cnc2n(C)c1=O
[1]
  pEC50: 8.13
[2]
  half-life: 1.95 h
[3]
  half-life: 1.97 h
[4]
  pEC50: 8.10

## Cn1c(=O)c(F)c(Nc2ccc(I)cc2F)c2c(=O)n(OC[C@H](O)CO)cnc21
[1]
  pEC50: 8.52
[5]
  pIC50: 8.51
[2]
  half-life: 0.583 h
[3]
  half-life: 0.467 h
[4]
  pEC50: 9.00

## Cn1c(=O)c(F)c(Nc2ccc(I)cc2F)c2c(=O)n(C(CO)CO)cnc21
[1]
  pEC50: 8.10
[5]
  pIC50: 8.48
[2]
  half-life: 0.517 h
[3]
  half-life: 0.8 h
[4]
  pEC50: 8.46

## C#Cc1ccc(Nc2c(F)c(=O)n(C)c3ncn(C[C@@H](O)CO)c(=O)c23)c(F)c1
[1]
  pEC50: 7.96
[5]
  pIC50: 8.32
[2]
  half-life: 0.817 h
[3]
  half-life: 0.55 h
[4]
  pEC50: 8.00

## Cn1c(=O)c(F)c(Nc2ccc(I)cc2F)c2c(=O)n(C[C@H](O)CO)cnc21
[1]
  pEC50: 8.52
[5]
  pIC50: 8.49
[2]
  half-life: 3.05 h
[3]
  half-life: 1.52 h
[4]
  pEC50: 8.59

## Cn1c(=O)cc(Nc2ccc(I)cc2F)c2c(=O)n(CCO)cnc21
[1]
  pEC50: 7.22
[2]
  half-life: 0.617 h
[3]
  half-life: 0.183 h
[4]
  pEC50: 7.42

## Cn1c(=O)cc(Nc2ccc(I)cc2F)c2c(=O)n(C[C@@H](O)CCO)cnc21
[1]
  pEC50: 6.32
[2]
  half-life: > 3.33 h
[3]
  half-life: 0.667 h
[4]
  pEC50: 6.85

Reference: ChEMBL document CHEMBL1681690, “Discovery of TAK-733, a potent and selective MEK allosteric site inhibitor for the treatment of cancer” (Bioorg Med Chem Lett, 2011)
